According to PubChem BioAssay (NCI):
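Five concentrations, 48 hours, 96-well plates. The concentration for 50% growth inhibition is given as GI50. TGI denotes the concentration required for complete inhibition of growth.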

Assays:
Assay in all cases: NCI tumour cell line growth inhibition, 48 h
A498 renal = system: A498 renal
A549 NSCLC = system: A549 NSCLC
ACHN renal = system: ACHN renal
CAKI-1 renal = system: CAKI-1 renal
COLO 205 colon = system: COLO 205 colon
DU-145 prostate = system: DU-145 prostate
EKVX NSCLC = system: EKVX NSCLC
HCT-15 colon = system: HCT-15 colon
HOP-92 NSCLC = system: HOP-92 NSCLC
HT29 colon = system: HT29 colon
IGROV1 ovarian = system: IGROV1 ovarian
KM12 colon = system: KM12 colon
M14 melanoma = system: M14 melanoma
MDA-MB-231 breast = system: MDA-MB-231 breast
MDA-MB-435 = system: MDA-MB-435
MDA-N = system: MDA-N
NCI-H23 lung = system: NCI-H23 lung
NCI/ADR-RES ovarian = system: NCI/ADR-RES ovarian
OVCAR-3 ovarian = system: OVCAR-3 ovarian
OVCAR-4 ovarian = system: OVCAR-4 ovarian
OVCAR-5 ovarian = system: OVCAR-5 ovarian
OVCAR-8 ovarian = system: OVCAR-8 ovarian
PC-3 prostate = system: PC-3 prostate
RXF 393 renal = system: RXF 393 renal
SF-268 CNS = system: SF-268 CNS
SF-295 CNS = system: SF-295 CNS
SK-MEL-28 melanoma = system: SK-MEL-28 melanoma
SK-MEL-5 melanoma = system: SK-MEL-5 melanoma
SN12C renal = system: SN12C renal
SNB-19 CNS = system: SNB-19 CNS
SNB-75 CNS = system: SNB-75 CNS
SW-620 colon = system: SW-620 colon
TK-10 renal = system: TK-10 renal
U251 CNS = system: U251 CNS
UO-31 renal = system: UO-31 renal
786-0 renal = system: 786-0 renal
BT-549 breast = system: BT-549 breast
CCRF-CEM leukemia = system: CCRF-CEM leukemia
HCC-2998 colon = system: HCC-2998 colon
HCT-116 colon = system: HCT-116 colon
HL-60(TB) leukemia = system: HL-60(TB) leukemia
HOP-62 NSCLC = system: HOP-62 NSCLC
HS 578T breast = system: HS 578T breast
K-562 leukemia = system: K-562 leukemia
LOX IMVI melanoma = system: LOX IMVI melanoma
MALME-3M melanoma = system: MALME-3M melanoma
MCF7 breast = system: MCF7 breast
MOLT-4 leukemia = system: MOLT-4 leukemia
NCI-H226 lung = system: NCI-H226 lung
NCI-H460 lung = system: NCI-H460 lung
NCI-H522 lung = system: NCI-H522 lung
RPMI-8226 leukemia = system: RPMI-8226 leukemia
SF-539 CNS = system: SF-539 CNS
SK-MEL-2 melanoma = system: SK-MEL-2 melanoma
SK-OV-3 ovarian = system: SK-OV-3 ovarian
SR leukemia = system: SR leukemia
T-47D breast = system: T-47D breast
UACC-257 melanoma = system: UACC-257 melanoma
UACC-62 melanoma = system: UACC-62 melanoma

C[N+]12CCN(c3ccccc31)c1ccccc12 was tested, and the TGI (A498 renal) was greater than 10000 nM, the TGI (A549 NSCLC) was greater than 10000 nM and the TGI (ACHN renal) was greater than 10000 nM. The TGI (CAKI-1 renal) was greater than 10000 nM, the TGI (COLO 205 colon) was greater than 10000 nM and the TGI (DU-145 prostate) was greater than 10000 nM. It also gave a TGI (EKVX NSCLC) greater than 10000 nM, a TGI (HCT-15 colon) greater than 10000 nM and a TGI (HOP-92 NSCLC) greater than 10000 nM. The TGI (HT29 colon) was greater than 10000 nM, the TGI (IGROV1 ovarian) was greater than 10000 nM and the TGI (KM12 colon) was greater than 10000 nM. The TGI (M14 melanoma) was greater than 10000 nM, the TGI (MDA-MB-231 breast) was greater than 10000 nM and the TGI (MDA-MB-435) was greater than 10000 nM. It also gave a TGI (MDA-N) of 8560 nM, a TGI (NCI-H23 lung) greater than 10000 nM and a TGI (NCI/ADR-RES ovarian) greater than 10000 nM. For the same compound, the TGI (OVCAR-3 ovarian) was greater than 10000 nM, the TGI (OVCAR-4 ovarian) was greater than 10000 nM and the TGI (OVCAR-5 ovarian) was greater than 10000 nM. For the same compound, the TGI (OVCAR-8 ovarian) was greater than 10000 nM, the TGI (PC-3 prostate) was greater than 10000 nM and the TGI (RXF 393 renal) was greater than 10000 nM. The TGI (SF-268 CNS) was greater than 10000 nM, the TGI (SF-295 CNS) was greater than 10000 nM and the TGI (SK-MEL-28 melanoma) was greater than 10000 nM. It also gave a TGI (SK-MEL-5 melanoma) of 5420 nM, a TGI (SN12C renal) greater than 10000 nM and a TGI (SNB-19 CNS) greater than 10000 nM. It also gave a TGI (SNB-75 CNS) greater than 10000 nM, a TGI (SW-620 colon) greater than 10000 nM and a TGI (TK-10 renal) greater than 10000 nM. For the same compound, the TGI (U251 CNS) was greater than 10000 nM and the TGI (UO-31 renal) was greater than 10000 nM.

In the case of CN1CCN(c2ccc(NC(=O)c3cncnc3Nc3ccc(OCc4cccc(F)c4)c(Cl)c3)cc2)CC1, the GI50 (786-0 renal) is reported as 992 nM, the TGI (786-0 renal) is reported as 2030 nM and the GI50 (A498 renal) is reported as 1550 nM. For the same compound, the TGI (A498 renal) was 24700 nM, the GI50 (A549 NSCLC) was 1510 nM and the TGI (A549 NSCLC) was 5050 nM. For the same compound, the GI50 (ACHN renal) was 1340 nM, the TGI (ACHN renal) was 3740 nM and the GI50 (BT-549 breast) was greater than 50000 nM. For the same compound, the TGI (BT-549 breast) was greater than 50000 nM, the GI50 (CAKI-1 renal) was 1480 nM and the TGI (CAKI-1 renal) was 6010 nM. For the same compound, the GI50 (CCRF-CEM leukemia) was 1270 nM, the TGI (CCRF-CEM leukemia) was 4230 nM and the GI50 (COLO 205 colon) was 799 nM. It also gave a TGI (COLO 205 colon) of 1540 nM, a GI50 (DU-145 prostate) of 4900 nM and a TGI (DU-145 prostate) greater than 50000 nM. For the same compound, the GI50 (EKVX NSCLC) was 10900 nM, the TGI (EKVX NSCLC) was greater than 50000 nM and the GI50 (HCC-2998 colon) was 1130 nM. The TGI (HCC-2998 colon) was 2700 nM, the GI50 (HCT-116 colon) was 966 nM and the TGI (HCT-116 colon) was 2120 nM. It also gave a GI50 (HCT-15 colon) of 889 nM, a TGI (HCT-15 colon) of 1910 nM and a GI50 (HL-60(TB) leukemia) of 1300 nM. The TGI (HL-60(TB) leukemia) was 3440 nM, the GI50 (HOP-62 NSCLC) was 2530 nM and the TGI (HOP-62 NSCLC) was 16100 nM. It also gave a GI50 (HOP-92 NSCLC) of 1950 nM, a TGI (HOP-92 NSCLC) of 18100 nM and a GI50 (HS 578T breast) of 1990 nM. It also gave a TGI (HS 578T breast) of 11600 nM, a GI50 (HT29 colon) of 1100 nM and a TGI (HT29 colon) of 2650 nM. It also gave a GI50 (IGROV1 ovarian) of 1780 nM, a TGI (IGROV1 ovarian) greater than 50000 nM and a GI50 (K-562 leukemia) of 799 nM. For the same compound, the TGI (K-562 leukemia) was 1830 nM, the GI50 (KM12 colon) was 2210 nM and the TGI (KM12 colon) was greater than 50000 nM. For the same compound, the GI50 (LOX IMVI melanoma) was 849 nM, the TGI (LOX IMVI melanoma) was 1610 nM and the GI50 (M14 melanoma) was 895 nM. The TGI (M14 melanoma) was 1710 nM, the GI50 (MALME-3M melanoma) was 850 nM and the TGI (MALME-3M melanoma) was 1740 nM. For the same compound, the GI50 (MCF7 breast) was 993 nM, the TGI (MCF7 breast) was 2400 nM and the GI50 (MDA-MB-231 breast) was 971 nM. For the same compound, the TGI (MDA-MB-231 breast) was 1990 nM, the GI50 (MDA-MB-435) was 972 nM and the TGI (MDA-MB-435) was 1870 nM. For the same compound, the GI50 (MOLT-4 leukemia) was 907 nM, the TGI (MOLT-4 leukemia) was 2280 nM and the GI50 (NCI-H226 lung) was 40900 nM. It also gave a TGI (NCI-H226 lung) greater than 50000 nM, a GI50 (NCI-H23 lung) of 4010 nM and a TGI (NCI-H23 lung) greater than 50000 nM. The GI50 (NCI-H460 lung) was 1140 nM, the TGI (NCI-H460 lung) was 2470 nM and the GI50 (NCI-H522 lung) was 1140 nM. It also gave a TGI (NCI-H522 lung) of 3280 nM, a GI50 (NCI/ADR-RES ovarian) of 5270 nM and a TGI (NCI/ADR-RES ovarian) greater than 50000 nM. For the same compound, the GI50 (OVCAR-3 ovarian) was 3580 nM, the TGI (OVCAR-3 ovarian) was greater than 50000 nM and the GI50 (OVCAR-4 ovarian) was 4000 nM. For the same compound, the TGI (OVCAR-4 ovarian) was greater than 50000 nM, the GI50 (OVCAR-5 ovarian) was 1600 nM and the TGI (OVCAR-5 ovarian) was 7290 nM. It also gave a GI50 (OVCAR-8 ovarian) of 7840 nM, a TGI (OVCAR-8 ovarian) greater than 50000 nM and a GI50 (PC-3 prostate) of 1780 nM. For the same compound, the TGI (PC-3 prostate) was greater than 50000 nM, the GI50 (RPMI-8226 leukemia) was 1260 nM and the TGI (RPMI-8226 leukemia) was 3320 nM. It also gave a GI50 (RXF 393 renal) of 956 nM, a TGI (RXF 393 renal) of 1900 nM and a GI50 (SF-268 CNS) of 4910 nM. It also gave a TGI (SF-268 CNS) of 15900 nM, a GI50 (SF-295 CNS) of 6510 nM and a TGI (SF-295 CNS) of 16500 nM. The GI50 (SF-539 CNS) was 847 nM, the TGI (SF-539 CNS) was 1600 nM and the GI50 (SK-MEL-2 melanoma) was 3000 nM. It also gave a TGI (SK-MEL-2 melanoma) of 12200 nM, a GI50 (SK-MEL-28 melanoma) of 849 nM and a TGI (SK-MEL-28 melanoma) of 1560 nM. The GI50 (SK-MEL-5 melanoma) was 1550 nM, the TGI (SK-MEL-5 melanoma) was 5200 nM and the GI50 (SK-OV-3 ovarian) was 10000 nM. The TGI (SK-OV-3 ovarian) was greater than 50000 nM, the GI50 (SN12C renal) was 1130 nM and the TGI (SN12C renal) was 2750 nM. For the same compound, the GI50 (SNB-19 CNS) was 2810 nM, the TGI (SNB-19 CNS) was 18700 nM and the GI50 (SNB-75 CNS) was 5770 nM. It also gave a TGI (SNB-75 CNS) of 18800 nM, a GI50 (SR leukemia) of 939 nM and a TGI (SR leukemia) of 2460 nM. It also gave a GI50 (SW-620 colon) of 932 nM, a TGI (SW-620 colon) of 1880 nM and a GI50 (T-47D breast) of 3630 nM. It also gave a TGI (T-47D breast) greater than 50000 nM, a GI50 (TK-10 renal) of 22400 nM and a TGI (TK-10 renal) greater than 50000 nM. The GI50 (U251 CNS) was 1070 nM, the TGI (U251 CNS) was 2520 nM and the GI50 (UACC-257 melanoma) was 1070 nM. It also gave a TGI (UACC-257 melanoma) of 2540 nM, a GI50 (UACC-62 melanoma) of 914 nM and a TGI (UACC-62 melanoma) of 1740 nM. For the same compound, the GI50 (UO-31 renal) was 893 nM and the TGI (UO-31 renal) was 1700 nM.
